Assay results taken from paper PMC7827406, “Structure–Activity Relationship (SAR) Study of Spautin-1 to Entail the Discovery of Novel NEK4 Inhibitors” (International Journal of Molecular Sciences, 2021).
Read-outs that look alike come from different tables or passages of the source.

Key:
Assay in all cases: biochemical
Design in all cases: Eurofins KinaseProfiler full panel at Km ATP, residual kinase activity (%) relative to DMSO
STK33(h) = STK33(h) (Homo sapiens, UniProt Q9BYT3)
In short: (§1)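 Radiometric kinase activity assays were run with ATP at Km and compounds at 10 µM, and remaining activity (%) was reported. A separate competitive binding screen measured DNA-tagged kinase displaced from immobilized active-site ligands by qPCR, giving percent kinase still bound at 10 µM compound in DMSO.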

CLK3(h) = CLK3(h) (Homo sapiens, UniProt P49761)
In short: as §1

p70S6K(h) = biological target: T1, p70S6K(h) (Homo sapiens, UniProt P23443)
T1 construct: gene RPS6KB1
In short: as §1

TLK2(h) = TLK2(h) (Homo sapiens, UniProt Q86UE8)
In short: as §1

CDK18/cyclinY(h) = CDK18/cyclinY(h) (Homo sapiens, UniProt Q07002)
In short: as §1

JAK1(h) = JAK1(h) (Homo sapiens, UniProt P23458)
In short: as §1

Aurora-B(h) = biological target: T2, Aurora-B(h) (Homo sapiens, UniProt Q96GD4)
T2 construct: gene AURKB
In short: as §1

[1] = biological target: T3, PI3 Kinase (p110d/p85a)(m) (Mus musculus, UniProt O35904)
T3 construct: gene Pik3cd
In short: as §1

CaMKK2(h) = CaMKK2(h) (Homo sapiens, UniProt Q96RR4)
In short: as §1

Blk(m) = Blk(m) (Mus musculus, UniProt P16277)
In short: as §1

FGFR1(h) = FGFR1(h) (Homo sapiens, UniProt P11362)
In short: as §1

SGK2(h) = biological target: T4, SGK2(h) (Homo sapiens, UniProt Q9HBY8)
T4 sequence (Q9HBY8 1-367): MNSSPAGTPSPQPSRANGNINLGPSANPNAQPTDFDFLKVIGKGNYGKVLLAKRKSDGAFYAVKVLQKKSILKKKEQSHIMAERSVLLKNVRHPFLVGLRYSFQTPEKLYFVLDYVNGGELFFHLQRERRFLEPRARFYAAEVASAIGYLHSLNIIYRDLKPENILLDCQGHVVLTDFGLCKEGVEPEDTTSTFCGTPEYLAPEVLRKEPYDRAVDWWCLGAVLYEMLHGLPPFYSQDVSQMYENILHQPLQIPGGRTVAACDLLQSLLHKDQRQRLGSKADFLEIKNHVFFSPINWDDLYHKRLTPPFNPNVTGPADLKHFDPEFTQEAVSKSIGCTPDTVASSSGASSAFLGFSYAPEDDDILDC
In short: as §1

WNK4(h) = WNK4(h) (Homo sapiens, UniProt Q96J92)
In short: as §1

DNA-PK(h) = biological target: T5, DNA-PK(h) (Homo sapiens, UniProt P78527)
T5 construct: gene PRKDC
In short: as §1

Tie2 (h) = biological target: T6, Tie2 (h) (Homo sapiens, UniProt Q02763)
T6 construct: gene TEK
In short: as §1

Flt1(h) = Flt1(h) (Homo sapiens, UniProt P17948)
In short: as §1

[2] = read-out: Residual activity (%) 5ay
[3] = read-out: Residual activity (%) Spautin-1 5aa
[4] = read-out: Residual activity (%) 5at
[5] = read-out: Residual activity (%) 5as

STK33(h), sequence (Q9BYT3 whole entry): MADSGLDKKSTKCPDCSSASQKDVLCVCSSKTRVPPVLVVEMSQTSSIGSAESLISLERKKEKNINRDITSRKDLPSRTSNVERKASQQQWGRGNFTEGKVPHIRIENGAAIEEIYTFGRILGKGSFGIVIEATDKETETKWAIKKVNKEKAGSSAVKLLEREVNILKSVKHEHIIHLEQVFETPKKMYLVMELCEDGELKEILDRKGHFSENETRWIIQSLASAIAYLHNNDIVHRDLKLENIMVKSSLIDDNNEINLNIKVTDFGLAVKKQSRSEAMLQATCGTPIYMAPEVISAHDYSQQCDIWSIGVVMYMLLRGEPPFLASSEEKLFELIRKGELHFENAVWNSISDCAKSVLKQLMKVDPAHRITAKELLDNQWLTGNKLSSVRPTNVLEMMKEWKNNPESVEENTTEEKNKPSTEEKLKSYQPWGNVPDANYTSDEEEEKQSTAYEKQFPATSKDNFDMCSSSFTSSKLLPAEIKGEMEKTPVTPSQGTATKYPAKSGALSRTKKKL
TLK2(h), sequence (Q86UE8 whole entry): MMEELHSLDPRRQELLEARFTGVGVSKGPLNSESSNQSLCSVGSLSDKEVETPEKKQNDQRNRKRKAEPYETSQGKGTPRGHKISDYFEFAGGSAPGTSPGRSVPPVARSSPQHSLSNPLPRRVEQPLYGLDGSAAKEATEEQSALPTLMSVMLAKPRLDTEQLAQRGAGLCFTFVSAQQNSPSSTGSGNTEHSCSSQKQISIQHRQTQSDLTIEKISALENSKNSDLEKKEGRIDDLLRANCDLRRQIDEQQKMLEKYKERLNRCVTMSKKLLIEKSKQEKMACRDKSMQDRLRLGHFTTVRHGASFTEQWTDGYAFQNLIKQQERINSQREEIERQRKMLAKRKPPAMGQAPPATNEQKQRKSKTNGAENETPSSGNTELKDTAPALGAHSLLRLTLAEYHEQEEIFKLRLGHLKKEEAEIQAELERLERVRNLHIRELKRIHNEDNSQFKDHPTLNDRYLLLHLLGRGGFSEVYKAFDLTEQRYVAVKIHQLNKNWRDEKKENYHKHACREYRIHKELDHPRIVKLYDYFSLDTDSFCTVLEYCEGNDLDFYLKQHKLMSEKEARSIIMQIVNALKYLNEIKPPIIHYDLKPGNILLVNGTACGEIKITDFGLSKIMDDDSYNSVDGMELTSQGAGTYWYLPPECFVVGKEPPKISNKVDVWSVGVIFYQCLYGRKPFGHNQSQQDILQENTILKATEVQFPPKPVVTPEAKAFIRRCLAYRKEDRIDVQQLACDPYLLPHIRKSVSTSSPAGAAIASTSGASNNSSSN
CLK3(h), sequence (P49761 whole entry): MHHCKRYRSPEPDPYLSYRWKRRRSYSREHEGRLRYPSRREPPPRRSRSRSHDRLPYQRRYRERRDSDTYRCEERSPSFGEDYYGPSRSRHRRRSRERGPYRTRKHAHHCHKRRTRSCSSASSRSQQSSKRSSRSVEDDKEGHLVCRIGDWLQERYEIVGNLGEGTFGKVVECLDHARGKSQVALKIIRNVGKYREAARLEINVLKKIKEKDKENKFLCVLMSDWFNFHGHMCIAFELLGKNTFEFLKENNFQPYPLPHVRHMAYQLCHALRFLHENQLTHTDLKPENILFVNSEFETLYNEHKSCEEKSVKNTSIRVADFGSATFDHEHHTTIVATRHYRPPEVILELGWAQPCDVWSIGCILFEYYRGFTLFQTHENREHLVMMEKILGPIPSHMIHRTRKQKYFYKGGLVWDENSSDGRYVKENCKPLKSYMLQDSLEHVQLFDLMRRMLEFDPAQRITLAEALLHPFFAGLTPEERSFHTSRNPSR
T2 sequence (Q96GD4 whole entry): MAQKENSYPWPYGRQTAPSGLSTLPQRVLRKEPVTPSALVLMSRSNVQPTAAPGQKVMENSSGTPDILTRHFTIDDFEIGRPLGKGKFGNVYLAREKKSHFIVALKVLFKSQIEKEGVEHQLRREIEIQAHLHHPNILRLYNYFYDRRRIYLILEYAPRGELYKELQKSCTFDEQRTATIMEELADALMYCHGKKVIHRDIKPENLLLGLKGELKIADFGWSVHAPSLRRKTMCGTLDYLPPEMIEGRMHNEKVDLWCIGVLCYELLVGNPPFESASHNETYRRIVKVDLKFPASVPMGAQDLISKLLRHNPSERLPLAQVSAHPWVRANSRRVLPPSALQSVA
WNK4(h), sequence (Q96J92 whole entry): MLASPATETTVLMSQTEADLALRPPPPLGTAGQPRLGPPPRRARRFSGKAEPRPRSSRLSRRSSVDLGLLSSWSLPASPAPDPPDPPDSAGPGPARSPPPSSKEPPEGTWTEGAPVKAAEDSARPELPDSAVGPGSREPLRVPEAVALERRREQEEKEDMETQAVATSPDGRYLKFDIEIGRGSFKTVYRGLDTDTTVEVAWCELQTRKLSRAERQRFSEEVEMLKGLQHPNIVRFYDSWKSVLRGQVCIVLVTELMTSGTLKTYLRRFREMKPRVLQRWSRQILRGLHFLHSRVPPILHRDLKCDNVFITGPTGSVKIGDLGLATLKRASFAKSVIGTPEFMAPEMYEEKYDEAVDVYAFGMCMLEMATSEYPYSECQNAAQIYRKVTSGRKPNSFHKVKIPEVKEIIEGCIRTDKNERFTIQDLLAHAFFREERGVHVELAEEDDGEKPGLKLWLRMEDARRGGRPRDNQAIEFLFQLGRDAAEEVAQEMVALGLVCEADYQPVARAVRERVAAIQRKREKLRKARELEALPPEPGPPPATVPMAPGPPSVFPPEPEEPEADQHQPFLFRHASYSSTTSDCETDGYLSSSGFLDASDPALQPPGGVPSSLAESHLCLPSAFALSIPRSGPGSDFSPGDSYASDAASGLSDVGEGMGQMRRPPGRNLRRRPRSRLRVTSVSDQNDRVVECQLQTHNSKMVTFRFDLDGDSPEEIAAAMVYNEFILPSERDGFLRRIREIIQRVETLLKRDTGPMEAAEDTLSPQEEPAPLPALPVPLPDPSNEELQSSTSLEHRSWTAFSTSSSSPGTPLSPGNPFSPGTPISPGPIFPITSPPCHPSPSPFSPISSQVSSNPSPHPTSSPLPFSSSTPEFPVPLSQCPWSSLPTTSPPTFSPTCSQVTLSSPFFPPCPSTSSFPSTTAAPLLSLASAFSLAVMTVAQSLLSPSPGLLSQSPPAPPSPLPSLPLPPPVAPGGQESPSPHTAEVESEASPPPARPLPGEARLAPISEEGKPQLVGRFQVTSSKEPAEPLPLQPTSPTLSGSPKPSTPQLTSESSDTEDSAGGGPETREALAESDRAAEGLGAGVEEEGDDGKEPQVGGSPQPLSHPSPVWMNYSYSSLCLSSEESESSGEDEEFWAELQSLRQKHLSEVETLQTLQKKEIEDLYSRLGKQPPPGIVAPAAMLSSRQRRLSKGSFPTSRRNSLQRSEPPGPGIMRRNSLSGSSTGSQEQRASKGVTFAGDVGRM
CDK18/cyclinY(h), sequence (Q07002 whole entry): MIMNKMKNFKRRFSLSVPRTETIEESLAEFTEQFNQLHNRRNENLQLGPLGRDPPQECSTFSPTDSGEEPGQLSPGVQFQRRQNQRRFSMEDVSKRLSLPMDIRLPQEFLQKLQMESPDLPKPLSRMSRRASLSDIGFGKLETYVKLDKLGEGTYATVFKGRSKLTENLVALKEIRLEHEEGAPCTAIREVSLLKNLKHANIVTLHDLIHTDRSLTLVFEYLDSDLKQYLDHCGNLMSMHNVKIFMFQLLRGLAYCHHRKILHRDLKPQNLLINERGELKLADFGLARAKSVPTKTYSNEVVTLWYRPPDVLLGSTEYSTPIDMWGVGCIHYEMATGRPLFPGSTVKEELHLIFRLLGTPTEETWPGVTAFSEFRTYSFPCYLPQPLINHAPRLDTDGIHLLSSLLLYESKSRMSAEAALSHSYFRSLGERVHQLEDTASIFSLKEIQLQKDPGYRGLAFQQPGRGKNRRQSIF
CDK18/cyclinY(h), sequence (Q8ND76 whole entry partner): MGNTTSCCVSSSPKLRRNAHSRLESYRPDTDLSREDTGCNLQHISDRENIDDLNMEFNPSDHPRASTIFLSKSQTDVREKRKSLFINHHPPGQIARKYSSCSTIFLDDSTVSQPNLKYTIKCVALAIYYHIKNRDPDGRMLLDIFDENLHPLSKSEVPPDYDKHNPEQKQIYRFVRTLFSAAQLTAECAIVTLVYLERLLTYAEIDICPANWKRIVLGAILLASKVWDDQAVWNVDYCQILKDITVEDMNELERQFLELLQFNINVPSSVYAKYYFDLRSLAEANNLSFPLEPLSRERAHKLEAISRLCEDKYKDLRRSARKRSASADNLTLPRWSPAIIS
Blk(m), sequence (P16277 whole entry): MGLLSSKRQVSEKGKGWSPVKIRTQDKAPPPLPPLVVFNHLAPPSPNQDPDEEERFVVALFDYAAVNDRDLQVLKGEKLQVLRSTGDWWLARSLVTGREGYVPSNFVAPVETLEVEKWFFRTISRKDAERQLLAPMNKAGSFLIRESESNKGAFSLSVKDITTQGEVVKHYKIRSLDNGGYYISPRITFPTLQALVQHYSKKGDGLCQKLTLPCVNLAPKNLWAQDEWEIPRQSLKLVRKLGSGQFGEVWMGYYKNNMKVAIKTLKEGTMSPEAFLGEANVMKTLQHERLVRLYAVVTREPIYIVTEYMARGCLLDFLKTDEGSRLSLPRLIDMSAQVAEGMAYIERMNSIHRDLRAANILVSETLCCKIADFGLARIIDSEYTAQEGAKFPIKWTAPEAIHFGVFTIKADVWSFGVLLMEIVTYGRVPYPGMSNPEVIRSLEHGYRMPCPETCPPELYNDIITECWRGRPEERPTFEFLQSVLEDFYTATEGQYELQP

Compound: COc1ccc2ncnc(Nc3cccc(F)c3)c2c1 [5ay, N-(3-Fluorophenyl)-6-Methoxy-4-Quinazolinamine]
- remaining activity at 10 µM (STK33(h); [2]): 77%
- remaining activity at 10 µM (CLK3(h); [2]): 114%
- remaining activity at 10 µM (p70S6K(h); [2]): 76%
- remaining activity at 10 µM (TLK2(h); [2]): 97%
- remaining activity at 10 µM (CDK18/cyclinY(h); [2]): 86%
- remaining activity at 10 µM (JAK1(h); [2]): 90%
- remaining activity at 10 µM (Aurora-B(h); [2]): 59%
- remaining activity at 10 µM [1, 2]: 96%
- remaining activity at 10 µM (CaMKK2(h); [2]): 78%
- remaining activity at 10 µM (Blk(m); [2]): 102%
- remaining activity at 10 µM (FGFR1(h); [2]): 81%
- remaining activity at 10 µM (SGK2(h); [2]): 103%
- remaining activity at 10 µM (WNK4(h); [2]): 100%
- remaining activity at 10 µM (DNA-PK(h); [2]): 72%
- remaining activity at 10 µM (Tie2 (h); [2]): 94%
- remaining activity at 10 µM (Flt1(h); [2]): 87%

Compound: Fc1ccc(CNc2ncnc3ccc(F)cc23)cc1 [5aa, 6-Fluoro-N-(4-fluorobenzyl)-4-Quinazolinamine]
- remaining activity at 10 µM (CLK3(h); [3]): 88%
- remaining activity at 10 µM (p70S6K(h); [3]): 91%
- remaining activity at 10 µM (TLK2(h); [3]): 99%
- remaining activity at 10 µM (CDK18/cyclinY(h); [3]): 87%
- remaining activity at 10 µM (JAK1(h); [3]): 117%
- remaining activity at 10 µM (Aurora-B(h); [3]): 85%
- remaining activity at 10 µM [1, 3]: 97%
- remaining activity at 10 µM (CaMKK2(h); [3]): 79%
- remaining activity at 10 µM (Blk(m); [3]): 91%
- remaining activity at 10 µM (FGFR1(h); [3]): 91%
- remaining activity at 10 µM (SGK2(h); [3]): 108%
- remaining activity at 10 µM (WNK4(h); [3]): 105%
- remaining activity at 10 µM (DNA-PK(h); [3]): 89%
- remaining activity at 10 µM (Tie2 (h); [3]): 104%
- remaining activity at 10 µM (Flt1(h); [3]): 101%

Compound: Fc1ccc2ncnc(NCCc3ccc(Cl)cc3)c2c1 [5at, N-[2-(4-Chlorophenyl)Ethyl]-6-Fluoro-4-Quinazolinamine]
- remaining activity at 10 µM (STK33(h); [4]): 100%
- remaining activity at 10 µM (CLK3(h); [4]): 116%
- remaining activity at 10 µM (p70S6K(h); [4]): 83%
- remaining activity at 10 µM (TLK2(h); [4]): 103%
- remaining activity at 10 µM (CDK18/cyclinY(h); [4]): 116%
- remaining activity at 10 µM (JAK1(h); [4]): 99%
- remaining activity at 10 µM (Aurora-B(h); [4]): 48%
- remaining activity at 10 µM [1, 4]: 93%
- remaining activity at 10 µM (CaMKK2(h); [4]): 96%
- remaining activity at 10 µM (Blk(m); [4]): 98%
- remaining activity at 10 µM (FGFR1(h); [4]): 123%
- remaining activity at 10 µM (SGK2(h); [4]): 89%
- remaining activity at 10 µM (WNK4(h); [4]): 92%
- remaining activity at 10 µM (DNA-PK(h); [4]): 85%
- remaining activity at 10 µM (Tie2 (h); [4]): 75%
- remaining activity at 10 µM (Flt1(h); [4]): 80%

Compound: Fc1ccc(CCNc2ncnc3ccc(F)cc23)cc1 [5as, 6-Fluoro-N-[2-(4-Fluorophenyl)Ethyl]-4-Quinazolinamine]
- remaining activity at 10 µM (STK33(h); [5]): 90%
- remaining activity at 10 µM (CLK3(h); [5]): 117%
- remaining activity at 10 µM (p70S6K(h); [5]): 81%
- remaining activity at 10 µM (TLK2(h); [5]): 98%
- remaining activity at 10 µM (CDK18/cyclinY(h); [5]): 102%
- remaining activity at 10 µM (JAK1(h); [5]): 93%
- remaining activity at 10 µM (Aurora-B(h); [5]): 69%
- remaining activity at 10 µM [1, 5]: 93%
- remaining activity at 10 µM (CaMKK2(h); [5]): 87%
- remaining activity at 10 µM (Blk(m); [5]): 100%
- remaining activity at 10 µM (FGFR1(h); [5]): 105%
- remaining activity at 10 µM (SGK2(h); [5]): 115%
- remaining activity at 10 µM (WNK4(h); [5]): 94%
- remaining activity at 10 µM (DNA-PK(h); [5]): 74%
- remaining activity at 10 µM (Tie2 (h); [5]): 92%
- remaining activity at 10 µM (Flt1(h); [5]): 86%
